Results reported in patent US5374772A, “Substituted benzoic acids, inhibitors of phospholipases A2” (Hoffmann-LaRoche Inc., priority 1993, dated 1994).
Counter-ions that a name gives are not always drawn.

Legend:
[1] = target: T1, HSF-PLA2 (extracellular PLA2 obtained from human synovial fluid) (Homo sapiens, UniProt P14555); test: Assay for Inhibition of HSF-PLA2 In Vitro; type: biochemical; conditions: for inhibition at 10 µM: read-out: % Inhib of HSF-PLA2
T1 construct: extracellular enzyme obtained from human synovial fluid; from tissue; host or cells: pooled human synovial fluid (0.1% v/v in the assay)
T1 sequence (P14555 21-144): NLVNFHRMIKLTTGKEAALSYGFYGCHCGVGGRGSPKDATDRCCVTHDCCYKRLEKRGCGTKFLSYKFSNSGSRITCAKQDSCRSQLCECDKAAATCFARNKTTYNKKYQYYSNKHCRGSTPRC
Protocol: The PLA2 used in this test is the extracellular enzyme obtained from human synovial fluid (HSF-PLA2). The assay for HSF-PLA2 activity was a modification of the described method [Franson R., Dobrow R., Weiss, J., Elsbach P., and […]. Lipid Res., 19, 18-23 (1978)] which was conducted using [1-^14 C]-oleate-labelled E. coli substrate in excess at a final concentration of 20,000 dpm/ml. This was equivalent to 18.2 mM of cell membrane phospholipid phosphorus and 2×10^9 autoclaved E. coli/ml. The optimal conditions which were developed for the assay of HSF-PLA2 inhibitors are summarized as follows. […] The reaction was terminated by the addition of 2.5 ml of chloroform-methanol (1 to 1.5, v/v). The extraction of lipids from the stopped reaction mixture was conducted by the further additions of 0.5 ml of chloroform and 1 ml of water with mixing. […] The extracted lipid residue was redissolved in […] of a solution containing carrier oleic acid (0.2 mg/ml) of […]]). […] This TLC system rapidly (6 minutes) resolved the enzymatically released product, ^14 C-oleic acid, from the unreacted ^14 C-phospholipid substrate. The unsaturated lipids were located on the chromatogram by a brief exposure to iodine vapor. The oleic acid zone (Rf value 0.95) and phospholipid zone (origin) were cut out, chopped into small pieces, shaken with 2 ml of ethanol-water (80 to 20, v/v) and 15 ml of Aquasol and counted for radioactivity. A control incubation of substrate in the absence of HSF-PLA2 was performed in each experiment. The PLA2 activity of the human synovial fluid was corrected for this small control value. […] The specific activity of PLA2 in the pooled human synovial fluid under the optimal assay conditions was 49.2 nmoles [1-^14 C]-oleic acid released hour^-1 mg^-1. The IC50 (μM concentration of test compound that produces 50% inhibition of PLA2 activity) was determined for each test compound.

[2] = test system: TPA-induced mouse ear edema; test: TPA Induced Mouse Ear Edema Test (ear punch weight); type: in vivo, male CD-1 mice; conditions: 30 minutes prior to TPA, ear punch weight at 6 hours; for inhibition in vivo at 1 mg / inhibition in vivo at 0.3 mg: Mus musculus; for inhibition in vivo at 1 mg: 1 mg topical, read-out: % Inhib of TPA Mouse Ear Edema (1 mg); for inhibition in vivo at 0.3 mg: 0.3 mg topical, read-out: % Inhib of TPA Mouse Ear Edema (0.3 mg)
Protocol: The TPA-induced mouse ear edema test, a model of irritant-induced contact dermatitis is described in the following reference: J. M. Young, B. M. Wagner and […]. Invest. Dermatology 80, 48-52 (1983). For this test, 10 μl of 12-O-tetradecanoylphorbol-13-acetate (TPA), dissolved in a vehicle of pyridine: water: diethyl ether (20:5:75), was applied to the outside of the right ear of 3-4 week old male CD-1 mice (8 animals per group). The test compounds were dissolved in the same vehicle and 10 μl was applied to the inside of the same ear 30 minutes prior to the application of TPA. Ear punches (6 mm) were removed at 6 hours after TPA application, weighed and assayed for myeloperoxidase (MPO) activity as described in the following reference: P. P. Bradley, […]. Christensen and G. Rothstein, J. Invest. Dermatology 78, 206-209 (1982). The wet weight of the ear biopsy punches is a measure of the ear edema and the level of MPO activity in the ear punches is an indicator of neutrophil infiltration. The data are expressed as percent inhibition of drug-[…] relative to the control group.

[3] = test system: croton oil-induced mouse ear edema; test: Croton Oil Mouse Ear Edema Test; type: in vivo, male CD-1 mice; conditions: 1 mg topical, coapplied with croton oil, ear punch weight at 6 hours
Protocol: The croton oil-induced mouse ear edema test, a model of irritant-induced contact dermatitis, has been used for evaluation of the PLA2 inhibitors by the topical route of administration. This test was carried out as described in the following references:
The major active ingredient in croton oil is the tumor promoter 12-O-tetradecanoylphorbol-13-acetate (TPA) and the topical application of TPA to mouse skin has been reported to cause an increase in epidermal PGE2 production as well as an increase in epidermal cell membrane PLA2 activity. Indomethacin, an inhibitor of prostaglandin synthesis, prevented the TPA-mediated increase in epidermal PGE2 levels as well as the TPA-mediated induction of epidermal cell ornithine decarboxylase. Furthermore, the application of PGE2 to mouse skin countered the inhibitory effect of indomethacin upon TPA-stimulated cellular proliferation.
Twenty five μl of a 1% croton oil solution [dissolved in a mixture of pyridine/water/diethyl ether at a ratio of 5/20/75 (croton oil vehicle)] are applied to the outer side of the right ear of 3-4 week old male CD-1 mice (8 animals per group). The test compounds are dissolved directly in the 1% croton oil solution at various concentrations and coapplied. Control animals receive 25 μl of croton oil vehicle on the right ear. Biopsy punches are removed at 6 hours from the fight ear of the animals using a 6 mm skin trephine (Roboz, Washington, D.C.) and the wet weight of the ear punches is determined. The weight of the biopsy punches is a measure of ear inflammation, primarily edema. The data are expressed as percent inhibition relative to control groups.
Statistical analysis of the mean edema values of the control versus the treated groups is performed using Student's t-test. The significance of changes from the mean value for vehicle-treated (control) animals in the following Tables is indicated as follows: *p<0.05, **p<0.01, ***p<0.005,ns/not significant.

Row | inhibition at 10 µM [1] | SMILES | inhibition in vivo at 1 mg [2] | also measured
1 |  | O=C(O)c1cc(OCCCOc2ccc(-c3ccccc3)cc2)cc(OCCCOc2ccc(-c3ccccc3)cc2)c1 [Example 6, 3,5-bis[3-(1,1'-Biphenyl-4-yloxy)propoxy]benzoic acid] |  | IC50 ([1]; given as 50 % inhibition at the given concentration, 14C-oleate-labelled E. coli substrate, pH 7.3, 37° C., 30 minutes, read-out: % Inhib of HSF-PLA2: 50 (concentration) = IC50 (μM concentration that produces 50% inhibition of PLA2 activity)): 3 µM
2 | 67% | O=C(O)c1cc(OCCOc2cccc3ccccc23)cc(OCCOc2cccc3ccccc23)c1 [Example 8A, 3,5-bis[2-(1-naphthalenyloxy)ethoxy]benzoic acid] |  | 
3 | 77% | CCCCCCCCCCCCCCCCCCOc1cc(OCCOc2ccc3ccccc3c2)cc(C(=O)O)c1 [Example 15, 3-[2-(2-Naphthalenyloxy)ethoxy]-5-(octadecyloxy) benzoic acid] |  | 
4 | 72% | CCCCCCCCCCCCCCCCCCOc1cc(OCCCOc2ccc([S+](C)[O-])cc2)cc(C(=O)O)c1 (stereo not drawn) [Example 24, 3-[3-[4-(Methylsulfinyl)phenoxy]propoxy]-5-(octadecyloxy)benzoic acid] | 43% | 
5 | 86% | CCCCCCCCCCCCCCCCCCOc1cc(OCCCOc2ccc(S(C)(=O)=O)cc2)cc(C(=O)O)c1 [Example 26, 3-[3-[4-(Methylsulfonyl)phenoxy]propoxy]-5-(octadecyloxy)benzoic acid] | 42% | 
6 |  | CCCCCCCCCCCCCCCCCCOc1cc(OCCCOc2ccc(OCc3ccccc3)cc2)cc(C(=O)O)c1 [Example 30, 3-[[3-(4-Phenylmethoxy)phenoxy]propoxy]-5-(octadecyloxy)benzoic acid] |  | % Inhib of Croton Oil Mouse Ear Edema (1 mg) [3]: 62%
7 | 2% | CCCCCCCCCCCCCCCCCCOc1cc(OCCCOc2ccc(O)cc2)cc(C(=O)OC)c1 [Example 34, 3-[3-(4-Hydroxyphenoxy)propoxy]-5-(octadecyloxy) benzoic acid methyl ester] | 42% | 
8 | 87% | CCCCCCCCCCCCCCOc1cc(OCCCOc2ccc(OCc3ccccc3)cc2)cc(C(=O)O)c1 [Example 36, 3-[3-[4-(Phenylmethoxy)phenoxy]propoxy]-5-(tetradecyloxy)benzoic acid] | 52% | 
9 | 75% | CCCCCCCCCCCCCCOc1cc(OCCCOc2ccc(O)cc2)cc(C(=O)O)c1 [Example 37, 3-[3-(4-Hydroxyphenoxy)propoxy]-5-(tetradecyloxy) benzoic acid] | 57% | 
10 | 61% | CCCCCCCCCCOc1cc(OCCCOc2ccc(OCc3ccccc3)cc2)cc(C(=O)O)c1 [Example 39, 3-(Decyloxy)-5-[3-[4-(phenylmethoxy)phenoxy]propoxy]benzoic acid] |  | 
11 | 54% | O=C(O)c1cc(OCCCOc2ccc(OCc3ccccc3)cc2)cc(OCCCOc2ccc(OCc3ccccc3)cc2)c1 [Example 41, 3,5-bis[3-[4-(Phenylmethoxy)phenoxy]propoxy]benzoic acid] | 54% | 
12 | 5% | O=C(O)c1cc(OCCCOc2ccc(O)cc2)cc(OCCCOc2ccc(O)cc2)c1 [Example 42, 3,5-bis[3-(4-Hydroxyphenoxy)propoxy]benzoic acid] | 43% | 
13 | 94% | CCCCCCCCCCCCCCCCCCOc1cc(OCCCCCCOc2ccc(O)cc2)cc(C(=O)O)c1 [Example 44] | 46% | 
14 | 91% | CCCCCCCCCCCCCCCCCCOc1cc(OCCCOc2ccccc2O)cc(C(=O)O)c1 [Example 46, 3-[3-(2-Hydroxyphenoxy)propoxy]-5-(octadecyloxy) benzoic acid] |  | inhibition in vivo at 0.3 mg [2]: 47%
15 | 79% | CCCCCCCCCCCCCCCCCCOc1ccc(OCCCOc2ccc(OCc3ccccc3)cc2)c(C(=O)O)c1 [Example 49, 5-(Octadecyloxy)-2-[3-[4-(phenylmethoxy)phenoxy]propoxy]benzoic acid] |  | inhibition in vivo at 0.3 mg [2]: 27%
16 | 93% | CCCCCCCCCCCCCCCCCCOc1ccc(OCCCOc2ccc(O)cc2)c(C(=O)O)c1 [Example 50, 2-[3-(4-Hydroxyphenoxy)propoxy]-5-(octadecyloxy) benzoic acid] | 45% | 
17 | 55% | CCCCCCCCCCCCCCCCCCOc1ccc(C(=O)O)c(OCCCOc2ccc(OCc3ccccc3)cc2)c1 [Example 53, 4-(Octadecyloxy)-2-[3-[4-(phenylmethoxy)phenoxy]propoxy]benzoic acid] | 17% | 
18 | 79% | CCCCCCCCCCCCCCCCCCOc1ccc(C(=O)O)c(OCCCOc2ccc(O)cc2)c1 [Example 54, 2-[3-(4-Hydroxyphenoxy)propoxy]-4-(octadecyloxy) benzoic acid] | 31% | 
19 | 91% | CCCCCCCCCCCCCCCCCCOc1cccc(C(=O)O)c1OCCCOc1ccc(OCc2ccccc2)cc1 [Example 57, 3-(Octadecyloxy)-2-[3-[4-(phenylmethoxy)phenoxy]propoxy]benzoic acid] | 62% | 
20 | 17% | CCCCCCCCCCCCCCOc1cc(OCCCCCCc2cccc(O)c2O)cc(C(=O)OC)c1 [Example 61, 3-[[6-(2,3-Dihydroxyphenyl)hexyl]oxy]-5-(tetradecyloxy) benzoic acid methyl ester] | 44% | 
21 | 22% | CCCCCCCCCCOc1cc(OCCCCCCc2cccc(O)c2O)cc(C(=O)OC)c1 [Example 66, 3-(Decyloxy)-5-[[6-(2,3-dihydroxyphenyl)hexyl]oxy]benzoic acid methyl ester] |  | inhibition in vivo at 0.3 mg [2]: 55%
22 |  | CCCCCCCCCCOc1cc(OCCCCCCc2cccc(O)c2O)cc(C(=O)OCCN(CC)CC)c1 [Example 71, 3-(Decyloxy)-5-[[6-(2,3-dihydroxyphenyl)hexyl]oxy]benzoic acid 2-(diethylamino)ethyl ester monohydrochloride salt] | 57% | 
23 |  | CCCCCCCCCCOc1cc(OCCCCCCc2cccc(O)c2O)cc(C(=O)OCOC(C)=O)c1 [Example 72, 3-(Decyloxy)-5-[[6-(2,3-dihydroxyphenyl)hexyl]oxy]benzoic acid (acetyloxy)methyl ester] |  | % Inhib of TPA Mouse Ear Edema (0.1 mg) ([2]; 0.1 mg topical): 52%
